Source: patent US20080221167A1, “Selective Insecticides Based on Haloalkylnicotinic Acid Derivatives, Anthranilic Acid Diamides, or Phthalic Acid Diamides and Safeners” (priority 2004, published 2008)

Legend:
Assay type in all cases: in vivo
[1] = system: Heliothis armigera; test: Heliothis armigera test, spray treatment dripping wet (cotton plants); conditions: alone; for Kill in % after 7d: Table A1; for Kill in % after 3d: Table A2
Procedure: (§1) To produce a suitable solution, 1 part by weight of formulation is mixed with the stated amount of water and adjuvant and the concentrate is diluted with water to the desired concentration.
Cotton plants (Gossypium hirsutum) are sprayed to runoff point with the desired use concentration and populated with caterpillars of the cotton bollworm (Heliothis armigera) while the leaves are still moist.
(§2) After the desired period of time, the kill in % is determined. 100% means that all larvae have been killed; 0% means that none of the larvae have been killed. The determined kill rates are entered into Colby's formula (see above).

[2] = system: Spodoptera frugiperda; test: Spodoptera frugiperda test, spray treatment dripping wet (corn plants); conditions: Table C2; 100 ppm; alone
Procedure: as §1
Spodoptera frugiperda Test
Corn plants (Zea mais) are sprayed to runoff point with the desired use concentration and populated with caterpillars of the armyworm (Spodoptera frugiperda) while the leaves are still moist.
as §2

[3] = system: Plutella xylostella; test: Plutella xylostella test, spray treatment dripping wet (cabbage plants); conditions: alone; for Kill in % after 7d: Table B1
Procedure: as §1
Cabbage plants (Brassica pekinesis) are sprayed to runoff point with the desired use concentration and populated with larvae of the diamondback moth (Plutella xylostella) while the leaves are still moist.
as §2

[4] = system: Aphis gossypii; test: Aphis gossypii test, spray application dripping wet (cotton plants); conditions: alone
Procedure: (§3) Solvent: water Adjuvant: rapeseed oil methyl ester
(§4) To produce a suitable application solution, 1 part by weight of the formulation is mixed with the appropriate amount of water and the adjuvant and the concentrate is diluted with water to the desired concentration.
Cotton plants (Gossypium herbaceum) which are heavily infested by the cotton aphid (Aphis gossypii) are sprayed to runoff point with the desired concentration of the application solution.
(§5) After the desired period of time, the kill in % is determined. 100% means that all aphids have been killed; 0% means that none of the aphids have been killed. The determined kill rates are entered into Colby's formula (see sheet 1).

[5] = system: Metopolophium dirhodum; test: Metopolophium dirhodum test, spray application dripping wet (barley plants); conditions: 100 ppm, alone
Procedure: as §3, §4
Metopolophium dirhodum Test
Barley plants (Hordeum vulgare) which are heavily infested by a cereal aphid (Metopolophium dirhodum) are sprayed to runoff point with the desired concentration of the application solution.
as §5

[6] = system: Myzus persicae; test: Myzus persicae test, spray application dripping wet (bell pepper plants); conditions: alone; for Kill in % after 3d: Table F1; for Kill in % after 7d: Table F2
Procedure: as §3, §4
Bell pepper plants (Capsicum sativum) which are heavily infested by the green peach aphid (Myzus persicae) are sprayed to runoff point with the desired concentration of the application solution.
as §5

C=CCN(CC=C)C(=O)C(Cl)Cl [dichlormid, 2,2-dichloro-N,N-di-2-propenylacetamide]
0%: Kill in % after 7d ([1]; 100 ppm) | Kill in % after 3d ([1]; 100 ppm) | Kill in % after 3d [2] | Kill in % after 3d ([3]; Table B2, 100 ppm) | Kill in % after 7d ([4]; Table D1, 100 ppm) | Kill in % after 7d ([4]; Table D2, 50 ppm) | Kill in % after 7d ([5]; Table E1) | Kill in % after 7d ([5]; Table E2) | Kill in % after 3d ([6]; 25 ppm) | Kill in % after 7d ([6]; 100 ppm)

Clc1cc(Cl)nc(-c2ccccc2)n1 [fenclorim, 4,6-dichloro-2-phenylpyrimidine]
0%: Kill in % after 3d ([1]; 100 ppm) | Kill in % after 3d [2] | Kill in % after 7d ([3]; 25 ppm) | Kill in % after 7d ([4]; Table D1, 100 ppm) | Kill in % after 7d ([4]; Table D2, 100 ppm) | Kill in % after 7d ([5]; Table E1) | Kill in % after 7d ([5]; Table E2) | Kill in % after 3d ([6]; 25 ppm) | Kill in % after 7d ([6]; 100 ppm)

CC1(C)OC(c2ccco2)CN1C(=O)C(Cl)Cl (stereo not shown) [furilazole, 3-dichloroacetyl-5-(2-furanyl)-2,2-dimethyloxazolidine]
0%: Kill in % after 7d ([1]; 25 ppm) | Kill in % after 3d ([1]; 50 ppm) | Kill in % after 3d [2] | Kill in % after 7d ([3]; 50 ppm) | Kill in % after 7d ([4]; Table D1, 100 ppm) | Kill in % after 7d ([4]; Table D2, 100 ppm) | Kill in % after 7d ([5]; Table E1) | Kill in % after 7d ([5]; Table E2) | Kill in % after 3d ([6]; 100 ppm)
